Test results reported in the supplement of paper PMC13380429.

Tests used:
Conditions in all cases: 72 h
[1] = test system: Caco-2; test: cell viability relative to DMSO; higher = less toxic
[2] = test system: Calu-3; test: as above
[3] = test system: HepG2; test: as above
[4] = test system: U2OS; test: as above
[5] = test system: Vero E6; test: as above
[6] = test system: Caco-2; test: relative viability EC50 (midpoint between 100% and the lowest measured viability); higher = less toxic
[7] = test system: Calu-3; test: as above
[8] = test system: HepG2; test: as above
[9] = test system: U2OS; test: as above
[10] = test system: Vero E6; test: as above
[11] = test system: Caco-2; test: drug sensitivity score (DSS) for viability; higher = more toxic; extreme values may be limits of the assay
[12] = test system: Calu-3; test: as above
[13] = test system: HepG2; test: as above
[14] = test system: U2OS; test: as above
[15] = test system: Vero E6; test: as above

Structure (SMILES)	cell viability ([1]; 1 nM)	cell viability ([1]; 10 nM)	cell viability ([1]; 100 nM)	cell viability ([1]; 1000 nM)	cell viability ([1]; 10000 nM)	cell viability ([2]; 1 nM)	cell viability ([2]; 10 nM)	cell viability ([2]; 100 nM)	cell viability ([2]; 1000 nM)	cell viability ([2]; 10000 nM)	cell viability ([3]; 1 nM)	cell viability ([3]; 10 nM)	cell viability ([3]; 100 nM)	cell viability ([3]; 1000 nM)	cell viability ([3]; 10000 nM)	cell viability ([4]; 1 nM)	cell viability ([4]; 10 nM)	cell viability ([4]; 100 nM)	cell viability ([4]; 1000 nM)	cell viability ([4]; 10000 nM)	cell viability ([5]; 1 nM)	cell viability ([5]; 10 nM)	cell viability ([5]; 100 nM)	cell viability ([5]; 1000 nM)	cell viability ([5]; 10000 nM)	relative viability EC50 [6]	relative viability EC50 [7]	relative viability EC50 [8]	relative viability EC50 [9]	relative viability EC50 [10]	drug sensitivity score [11]	drug sensitivity score [12]	drug sensitivity score [13]	drug sensitivity score [14]	drug sensitivity score [15]
O=C(CCCCC(=O)Nc1c(I)cc(I)c(C(=O)O)c1I)Nc1c(I)cc(I)c(C(=O)O)c1I [iodipamide]	106%	106%	97.1%	95.3%	102%	98%	104%	93.6%	101%	101%	96%	93.3%	97.6%	101%	103%	96.2%	103%	97.7%	95.1%	97.9%	102%	99.2%	101%	98.6%	103%	> 10 µM	> 10 µM	> 10 µM	> 10 µM	> 10 µM	0	0	0	0	0
CC(=O)N(CC(O)CO)c1c(I)c(C(=O)NCCO)c(I)c(C(=O)NCC(O)CO)c1I (stereo not given) [ioxilan]	103%	91.6%	93.6%	90.5%	90.6%	105%	96.9%	99.7%	101%	88.9%	105%	101%	86%	109%	90.8%	97.1%	97.1%	101%	92.8%	102%	113%	103%	93%	106%	101%	> 10 µM	> 10 µM	> 10 µM	> 10 µM	> 10 µM	0	0	0	0	0
CC(C)Cn1cnc2c1c(=O)n(C)c(=O)n2C [isbufylline]	93.7%	96.8%	112%	115%	112%	104%	88.5%	101%	102%	98.4%	100%	99%	91.7%	93.7%	105%	98.1%	96.5%	98.1%	97.3%	93.3%	92.9%	95.9%	91.3%	104%	106%	> 10 µM	> 10 µM	> 10 µM	> 10 µM	> 10 µM	0	0	0	0	0
